The text below walks through data of patent US10765764B2, “Probes for imaging huntingtin protein” (CHDI Foundation, Inc., priority 2015, dated 2020).

Each structure is given as a SMILES string.

By IC50 is commonly meant the concentration that inhibits the measured activity by half. Read a high IC50 as weaker potency in that assay.

In the experiment the target is T1, Q46 protein aggregates (Homo sapiens, UniProt P42858).
T1 construct: fused on or other part: An N-terminal GST tag, cleaved off with thrombin before the assay to trigger aggregation
T1 sequence (P42858 with tags, fused parts or gaps with the stated changes, form open): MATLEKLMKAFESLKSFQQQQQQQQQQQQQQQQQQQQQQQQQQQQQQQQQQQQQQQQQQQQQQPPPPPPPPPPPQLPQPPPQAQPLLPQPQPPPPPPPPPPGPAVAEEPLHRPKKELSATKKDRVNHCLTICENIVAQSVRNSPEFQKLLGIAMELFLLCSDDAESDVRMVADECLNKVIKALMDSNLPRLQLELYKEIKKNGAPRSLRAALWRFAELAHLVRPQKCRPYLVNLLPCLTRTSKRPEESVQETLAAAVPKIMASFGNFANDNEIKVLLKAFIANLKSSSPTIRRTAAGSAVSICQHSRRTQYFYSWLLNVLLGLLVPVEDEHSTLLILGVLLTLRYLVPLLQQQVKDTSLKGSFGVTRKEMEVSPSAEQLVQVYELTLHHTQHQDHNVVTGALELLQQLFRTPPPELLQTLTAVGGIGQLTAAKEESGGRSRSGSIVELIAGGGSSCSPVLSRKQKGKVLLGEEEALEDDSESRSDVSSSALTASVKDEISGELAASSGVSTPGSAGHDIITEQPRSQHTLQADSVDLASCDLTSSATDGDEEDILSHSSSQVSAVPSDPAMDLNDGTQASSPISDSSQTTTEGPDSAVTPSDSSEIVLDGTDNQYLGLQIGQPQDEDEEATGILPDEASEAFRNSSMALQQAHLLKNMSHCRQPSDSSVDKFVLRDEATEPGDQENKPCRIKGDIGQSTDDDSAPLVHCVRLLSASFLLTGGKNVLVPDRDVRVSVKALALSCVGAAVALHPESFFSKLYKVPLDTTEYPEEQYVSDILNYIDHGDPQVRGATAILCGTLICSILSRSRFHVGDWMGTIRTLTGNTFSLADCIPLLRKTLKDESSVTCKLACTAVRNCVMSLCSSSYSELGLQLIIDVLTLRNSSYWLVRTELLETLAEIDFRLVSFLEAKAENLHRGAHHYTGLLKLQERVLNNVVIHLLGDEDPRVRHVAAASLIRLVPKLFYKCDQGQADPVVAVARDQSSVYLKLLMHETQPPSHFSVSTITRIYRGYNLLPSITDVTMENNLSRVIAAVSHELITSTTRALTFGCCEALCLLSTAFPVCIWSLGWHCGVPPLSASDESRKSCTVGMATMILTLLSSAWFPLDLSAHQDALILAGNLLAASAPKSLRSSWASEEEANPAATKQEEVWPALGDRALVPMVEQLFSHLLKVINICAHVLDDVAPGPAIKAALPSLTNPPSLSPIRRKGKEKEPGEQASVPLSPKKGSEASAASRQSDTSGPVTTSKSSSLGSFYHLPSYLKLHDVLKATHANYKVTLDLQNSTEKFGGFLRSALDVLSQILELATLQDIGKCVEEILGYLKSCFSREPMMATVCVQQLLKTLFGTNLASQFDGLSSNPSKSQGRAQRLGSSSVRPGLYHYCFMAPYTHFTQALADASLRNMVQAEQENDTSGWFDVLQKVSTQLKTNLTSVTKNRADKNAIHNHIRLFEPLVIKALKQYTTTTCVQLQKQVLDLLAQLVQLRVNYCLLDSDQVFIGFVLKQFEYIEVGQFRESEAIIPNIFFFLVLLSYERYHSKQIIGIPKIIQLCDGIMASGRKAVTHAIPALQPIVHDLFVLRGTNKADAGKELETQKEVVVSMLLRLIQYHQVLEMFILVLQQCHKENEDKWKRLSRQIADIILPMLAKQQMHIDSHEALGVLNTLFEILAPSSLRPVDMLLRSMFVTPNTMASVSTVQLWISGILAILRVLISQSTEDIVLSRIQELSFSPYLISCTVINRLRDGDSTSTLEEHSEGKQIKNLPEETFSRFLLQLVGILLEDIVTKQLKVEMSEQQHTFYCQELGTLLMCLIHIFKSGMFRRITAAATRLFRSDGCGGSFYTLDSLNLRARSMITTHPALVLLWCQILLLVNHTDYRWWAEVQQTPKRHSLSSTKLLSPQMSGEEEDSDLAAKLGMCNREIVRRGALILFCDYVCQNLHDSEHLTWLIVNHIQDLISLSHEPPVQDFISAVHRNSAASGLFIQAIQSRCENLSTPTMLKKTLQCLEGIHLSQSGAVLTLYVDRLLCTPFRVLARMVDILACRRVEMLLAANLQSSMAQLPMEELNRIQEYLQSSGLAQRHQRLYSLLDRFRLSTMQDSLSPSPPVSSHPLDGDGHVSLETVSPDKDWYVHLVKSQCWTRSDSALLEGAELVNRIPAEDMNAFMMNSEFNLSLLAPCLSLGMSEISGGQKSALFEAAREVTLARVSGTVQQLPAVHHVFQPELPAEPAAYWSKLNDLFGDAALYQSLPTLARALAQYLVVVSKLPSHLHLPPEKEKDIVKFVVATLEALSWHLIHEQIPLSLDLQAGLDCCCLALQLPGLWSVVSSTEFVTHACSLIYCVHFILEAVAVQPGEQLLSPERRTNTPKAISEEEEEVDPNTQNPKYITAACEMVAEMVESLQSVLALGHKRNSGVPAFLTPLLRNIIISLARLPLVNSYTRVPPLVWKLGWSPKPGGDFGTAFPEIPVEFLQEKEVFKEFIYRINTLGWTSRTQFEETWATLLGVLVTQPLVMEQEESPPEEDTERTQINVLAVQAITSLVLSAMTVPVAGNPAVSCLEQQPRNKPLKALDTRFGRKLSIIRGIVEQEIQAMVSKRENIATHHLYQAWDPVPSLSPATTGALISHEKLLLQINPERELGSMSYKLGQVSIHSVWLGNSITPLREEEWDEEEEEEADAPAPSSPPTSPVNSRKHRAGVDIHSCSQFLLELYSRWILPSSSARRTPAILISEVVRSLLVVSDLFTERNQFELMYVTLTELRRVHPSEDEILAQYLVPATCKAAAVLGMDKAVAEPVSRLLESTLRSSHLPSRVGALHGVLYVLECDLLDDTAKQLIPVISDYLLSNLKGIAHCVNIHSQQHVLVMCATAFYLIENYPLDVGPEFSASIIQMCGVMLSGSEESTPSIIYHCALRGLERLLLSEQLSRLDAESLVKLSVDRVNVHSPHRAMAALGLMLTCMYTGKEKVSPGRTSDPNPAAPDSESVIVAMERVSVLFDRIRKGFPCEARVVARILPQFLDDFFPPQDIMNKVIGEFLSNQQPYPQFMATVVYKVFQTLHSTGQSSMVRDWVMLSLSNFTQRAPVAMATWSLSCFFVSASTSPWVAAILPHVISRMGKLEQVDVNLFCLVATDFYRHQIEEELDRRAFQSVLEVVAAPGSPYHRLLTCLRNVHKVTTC
Briefly: Q46 Radioligand Binding Assay (RBA), displacement of [^3H3]MK-3328. The settings on record: 10 nM [^3H3]MK-3328, 5 μM Q46 protein aggregates. The method, then:
For radioligand binding assays (RBA) GST-Q46 protein was generated based on a previous publication (Scherzinger et al. Cell, Vol. 90, 549-558, Aug. 8, 1997). For experiments 33 μM GST-Q46 was incubated with 150 μg/mL thrombin in assay buffer (150 mM NaCl, 50 mM Tris pH 8.0) and 2 mM CaCl2 for 16 hours at 37° C. Aggregated Q46 was pelleted by centrifugation for 5 minutes at 13,000 rpm in a bench top centrifuge and re-dissolved in the same volume of assay buffer. Test compounds were prepared by titration in DMSO at 11 concentrations from 33 μM to 1 nM. For the RBA, Q46 protein aggregates and test compounds were pre-incubated in assay buffer for 20 minutes at room temperature, in 140 μL/well in a 96-well plate (pp, round bottom). Then, ligand was added in 10 μL/well and incubated for 60 minutes at 37° C. Final assay concentrations were 1 μM to 30 pM test compound, 5 μM Q46 protein (equivalent monomer concentration) and 10 nM ligand [^3H3]MK-3328 (Harrision et al., ACS Med. Chem. Lett., 2 (2011), pp 498-502). Samples were transferred onto GF/B filter plates and washed 2× with 200 μL PBS using a Filtermate Harvester. After drying filter plates for 1 hour at 37° C., the back of the plates was sealed with foil and 30 μl/well scintillation fluid (Packard MicroScint 40) was added, incubated for incubated for 15 minutes in the dark and counted in a TopCount reader. For analysis, replicate data from independent assay plates were normalized towards 0% and 100% inhibition using control wells of vehicle (0% inhibition) and 3 μM unlabelled MK-3328 (100% inhibition). IC50 values were determined with a sigmoidal inhibition model with four variables (top, bottom, slope, IC50) in a global fit using the normalized replicate data.
Take `COc1ccc2c(c1)sc1nc(C(=O)Nc3ccc[n+]([O-])c3)cn12` [3-{10-methoxy-7-thia-2,5-diazatricyclo[6.4.0.0^2,6]dodeca-1(12),3,5,8,10-pentaene-4-amido}pyridin-1-ium-1-olate]: the IC50 lay within 100 to 500 nM.

Compound `COc1cncc(NC(=O)c2ccn3c(n2)nc2ccc(OC)cc23)c1` [4-methoxy-N-(5-methoxypyridin-3-yl)-1,8,10-triazatricyclo[7.4.0.0^2,7]trideca-2(7),3,5,8,10,12-hexaene-11-carboxamide] showed an IC50 of less than 100 nM. As for `COc1ccc2c(c1)nc1nc(C(=O)N3Cc4cnn(C)c4C3)ccn12` [5-methoxy-11-{1-methyl-1H,4H,5H,6H-pyrrolo[3,4-c]pyrazole-5-carbonyl}-1,8,10-triazatricyclo[7.4.0.0^2,7]trideca-2(7),3,5,8,10,12-hexaene], the IC50 is less than 100 nM. The same measure for `COc1ccc2c(c1)nc1nc(C(=O)Nc3ccc(=O)n(C)n3)ccn12` [5-methoxy-N-(1-methyl-6-oxo-1,6-dihydropyridazin-3-yl)-1,8,10-triazatricyclo[7.4.0.0^2,7]trideca-2(7),3,5,8,10,12-hexaene-11-carboxamide]: less than 100 nM. The compound `COc1cncc(NC(=O)c2ccn3c(n2)nc2cc(OC)ccc23)c1` [5-methoxy-N-(5-methoxypyridin-3-yl)-1,8,10-triazatricyclo[7.4.0.0^2,7]trideca-2(7),3,5,8,10,12-hexaene-11-carboxamide] came in with an IC50 of less than 100 nM.

On to `COc1ccc2c(c1)nc1nc(C(=O)Nc3ccc(OC)nc3)ccn12` [5-methoxy-N-(6-methoxypyridin-3-yl)-1,8,10-triazatricyclo[7.4.0.0^2,7]trideca-2(7),3,5,8,10,12-hexaene-11-carboxamide], for which the IC50 was less than 100 nM. Regarding `COc1ccc2c(c1)nc1nc(C(=O)Nc3cccnc3)ccn12` [5-methoxy-N-(pyridin-3-yl)-1,8,10-triazatricyclo[7.4.0.0^2,7]trideca-2(7),3,5,8,10,12-hexaene-11-carboxamide], the IC50 was less than 100 nM. The same measure for `O=C(Nc1cccnc1)c1cn2c(n1)sc1cc(OCCF)ccc12` [10-(2-fluoroethoxy)-N-(pyridin-3-yl)-7-thia-2,5-diazatricyclo[6.4.0.0^2,6]dodeca-1(8),3,5,9,11-pentaene-4-carboxamide]: less than 100 nM; for `COc1ccc(COc2ccc3c(c2)sc2nc(C(=O)Nc4cncc(OC)c4)cn23)nc1` [10-[(5-methoxypyridin-2-yl)methoxy]-N-(5-methoxypyridin-3-yl)-7-thia-2,5-diazatricyclo[6.4.0.0^2,6]dodeca-1(12),3,5,8,10-pentaene-4-carboxamide]: less than 100 nM. Compound `COc1cncc(NC(=O)c2cn3c(n2)sc2cc(CN(C)C)ccc23)c1` [10-[(dimethylamino)methyl]-N-(5-methoxypyridin-3-yl)-7-thia-2,5-diazatricyclo[6.4.0.0^2,6]dodeca-1(12),3,5,8,10-pentaene-4-carboxamide] showed an IC50 of 100 to 500 nM. The compound `COc1ccc(NC(=O)c2cn3c(n2)sc2cc(O)ccc23)cn1` [10-hydroxy-N-(6-methoxypyridin-3-yl)-7-thia-2,5-diazatricyclo[6.4.0.0^2,6]dodeca-1(12),3,5,8,10-pentaene-4-carboxamide] yielded an IC50 of less than 100 nM. With `O=C(Nc1cccnc1)c1cn2c(n1)sc1cc(O)ccc12` [10-hydroxy-N-(pyridin-3-yl)-7-thia-2,5-diazatricyclo[6.4.0.0^2,6]dodeca-1(12),3,5,8,10-pentaene-4-carboxamide], the IC50 is less than 100 nM. In turn, `COc1ccc2c(c1)sc1nc(C(=O)N3Cc4cnn(C)c4C3)cn12` [10-methoxy-4-{1-methyl-1H,4H,5H,6H-pyrrolo[3,4-c]pyrazole-5-carbonyl}-7-thia-2,5-diazatricyclo[6.4.0.0^2,6]dodeca-1(12),3,5,8,10-pentaene] showed an IC50 of less than 100 nM. On to `COc1ccc2c(c1)sc1nc(C(=O)N3CCc4ccncc43)cn12` [10-methoxy-4-{1H,2H,3H-pyrrolo[2,3-c]pyridine-1-carbonyl}-7-thia-2,5-diazatricyclo[6.4.0.0^2,6]dodeca-1(12),3,5,8,10-pentaene], for which the IC50 was more than 500 nM.

`COc1ccc2c(c1)sc1nc(C(=O)Nc3cnn(C)c3)cn12` [10-methoxy-N-(1-methyl-1H-pyrazol-4-yl)-7-thia-2,5-diazatricyclo[6.4.0.0^2,6]dodeca-1(12),3,5,8,10-pentaene-4-carboxamide] gave an IC50 of 100 to 500 nM. With `COc1ccc2c(c1)nc1sc(C(=O)Nc3ccc(=O)n(C)n3)cn12` [10-methoxy-N-(1-methyl-6-oxo-1,6-dihydropyridazin-3-yl)-5-thia-2,7-diazatricyclo[6.4.0.0^2,6]dodeca-1(12),3,6,8,10-pentaene-4-carboxamide], the IC50 is less than 100 nM.

The compound `COCCNC(=O)c1cn2c(n1)sc1cc(OC)ccc12` [10-methoxy-N-(2-methoxyethyl)-7-thia-2,5-diazatricyclo[6.4.0.0^2,6]dodeca-1(12),3,5,8,10-pentaene-4-carboxamide] showed an IC50 of 100 to 500 nM.

`COc1ccc2c(c1)nc1sc(C(=O)Nc3cnc(C)nc3)cn12` [10-methoxy-N-(2-methylpyrimidin-5-yl)-5-thia-2,7-diazatricyclo[6.4.0.0^2,6]dodeca-1(8),3,6,9,11-pentaene-4-carboxamide] yielded an IC50 of less than 100 nM.

`COc1ccc2c(c1)sc1nc(C(=O)Nc3cnc(C)nc3)cn12` [10-methoxy-N-(2-methylpyrimidin-5-yl)-7-thia-2,5-diazatricyclo[6.4.0.0^2,6]dodeca-1(12),3,5,8,10-pentaene-4-carboxamide] gave an IC50 of less than 100 nM.

As for `COc1ccc(NC(=O)c2cn3c(n2)sc2cc(OC)ccc23)nc1` [10-methoxy-N-(5-methoxypyridin-2-yl)-7-thia-2,5-diazatricyclo[6.4.0.0^2,6]dodeca-1(12),3,5,8,10-pentaene-4-carboxamide], the IC50 was less than 100 nM.

With `COc1cncc(NC(=O)c2cn3c(nc4cc(OC)ccc43)s2)c1` [10-methoxy-N-(5-methoxypyridin-3-yl)-5-thia-2,7-diazatricyclo[6.4.0.0^2,6]dodeca-1(12),3,6,8,10-pentaene-4-carboxamide], the IC50 is less than 100 nM. Compound `COc1cncc(NC(=O)c2cn3c(n2)sc2nc(OC)ccc23)c1` [10-methoxy-N-(5-methoxypyridin-3-yl)-7-thia-2,5,9-triazatricyclo[6.4.0.0^2,6]dodeca-1(12),3,5,8,10-pentaene-4-carboxamide] returned an IC50 of less than 100 nM. In the case of `COc1cncc(NC(=O)c2cn3c(n2)sc2cc(OC)ccc23)c1` [10-methoxy-N-(5-methoxypyridin-3-yl)-7-thia-2,5-diazatricyclo[6.4.0.0^2,6]dodeca-1(12),3,5,8,10-pentaene-4-carboxamide] it was less than 100 nM; in that of `COc1ccc2c(c1)sc1nc(C(=O)Nc3ccc(OC)nc3)cn12` [10-methoxy-N-(6-methoxypyridin-3-yl)-7-thia-2,5-diazatricyclo[6.4.0.0^2,6]dodeca-1(12),3,5,8,10-pentaene-4-carboxamide], less than 100 nM; in that of `COc1ccc2c(c1)sc1nc(C(=O)Nc3ccc(C)nc3)cn12` [10-methoxy-N-(6-methylpyridin-3-yl)-7-thia-2,5-diazatricyclo[6.4.0.0^2,6]dodeca-1(12),3,5,8,10-pentaene-4-carboxamide], less than 100 nM.
